{"source": "patent US5912183A", "about": "“Peptide inhibitors of mitogenesis and motogenesis” (Pharmacia & Upjohn S.p.A., priority 1993, dated 1999)", "tested_on": "N- and C-SH2 domains of p85", "experiment": "BIAcore inhibition of binding of GST-SH2 domains to immobilized PDGF receptor phosphopeptide Y751", "parameters": "species or system bovine", "conditions": "range of phosphopeptide concentrations; 25° C.; FIG. 7", "procedure": "FIG. 7. Evaluation of the relative affinities of phosphotyrosine 1313, 1349 and 1356 for the N- and C- SH2 domains of p85. Affinities were determined by biospecific interaction analysis with the BIAcore instrument (Jonsson, U., Fagerstam, L., Roos, H., Ronnberg, J., Sjolander, Stenber, E., Stahlberg, R. Urbaniczky, C., Ostlin, H., and Malmquist. 1991. Surface plasmon reasonance and microfluidics for real time biospecific interaction analysis. Biotechniques 11: 520-527; Jonsson, U. and M. Malmquist. 1992. Real time biospecific analysis. The integration of surface plasmon reasonance detection, general biospecific interface chemistry and microfluidics into one analytical system p. 291-336. In F. Turner (ed), Advances in Biosensors, vol. 2 JAI Press, London; Karlsson, R., Michaelsson, A., and L. Mattsson. 1991. Kinetic analysis of monoclonal antibody-antigen interactions with a new biosensor based analytical system. J. Immunol. Meth. 145: 229-246).\nRelative affinities were determined by measuring the ability of the phosphopeptides to inhibit the interaction of the SH2 domains with an immobilized phosphopeptide (DMSKDESVDY*VPMLDMK) (SEQ. ID NO: 26) which includes Y751 in the human PDGF receptor. Panel A and B show the results of these measurements, expressed as % inhibition of binding to phosphopeptide Y751.\nGST-SH2 domain fusion proteins. The N- and C-SH2 domains of the bovine PI 3-kinase p85 subunit (amino acids 314-431 and 612-722) were obtained by polymerase chain reaction and cloned into the pGEX-2 bacterial expression vector (Smith, D. B., and Johnson K. S., Gene 67: 31-40 (1988).\nGlutathione-S-transferase (GST)-SH2 fusion proteins were purified from bacterial lysates by glutathione affinity chromatography (Panayotou, G., et al. EMBO J., 11: 4261-4272 (1992)). Amino acid analysis on an Applied Biosystems 420A analyzer was used to determine the concentration of the recombinant proteins.\nAnalysis of the interaction of Y1349 and Y1356 with the p85 N- and C- SH2 domains using the BIAcore. […]", "note": "Residues, ends and D or L forms follow the SMILES beside them."}
{"molecule": "CSCC[C@H](NC(=O)[C@@H](NC(=O)[C@H](CCC(=O)O)NC(=O)[C@@H](N)Cc1ccc(OP(=O)(O)O)cc1)C(C)C)C(=O)N[C@@H](CC(C)C)C(=O)N[C@@H](CCCCN)C(=O)N[C@@H](CS)C(=O)N[C@@H](Cc1c[nH]c2ccccc12)C(=O)O", "note": "[H-Tyr*-Glu-Val-Met-Leu-Lys-Cys-Trp-OH] (HELM PEPTIDE1{[N[C@@H](Cc1ccc(OP(=O)(O)O)cc1)C(=O)[*:2]].E.V.M.L.K.C.W}$$$$V2.0)", "values": [{"measurement": "Apparent relative affinity: inhibition of binding of p85 N- and C-SH2 domains to phosphopeptide Y751", "result": "highest apparent affinity"}]}
